Experimental data: ChEMBL document CHEMBL5370549, “Optimization and evaluation of pyridinyl vinyl sulfones as Nrf2 activator for the antioxidant and anti-inflammatory effects” (Eur J Med Chem, 2023)
Where a name gives a salt, the structure may show the parent alone.

Key:
[1] = target: T1, Nuclear factor erythroid 2-related factor 2 (Homo sapiens, UniProt Q16236); assay: Activation of Nrf2 in human U2OS cells co-expressing Keap1 assessed as induction of Nrf2 nuclear translocation incubated for 6 hrs by PathHunter chemiluminescence based analysis; format: cell-based
T1 sequence (Q16236 whole entry): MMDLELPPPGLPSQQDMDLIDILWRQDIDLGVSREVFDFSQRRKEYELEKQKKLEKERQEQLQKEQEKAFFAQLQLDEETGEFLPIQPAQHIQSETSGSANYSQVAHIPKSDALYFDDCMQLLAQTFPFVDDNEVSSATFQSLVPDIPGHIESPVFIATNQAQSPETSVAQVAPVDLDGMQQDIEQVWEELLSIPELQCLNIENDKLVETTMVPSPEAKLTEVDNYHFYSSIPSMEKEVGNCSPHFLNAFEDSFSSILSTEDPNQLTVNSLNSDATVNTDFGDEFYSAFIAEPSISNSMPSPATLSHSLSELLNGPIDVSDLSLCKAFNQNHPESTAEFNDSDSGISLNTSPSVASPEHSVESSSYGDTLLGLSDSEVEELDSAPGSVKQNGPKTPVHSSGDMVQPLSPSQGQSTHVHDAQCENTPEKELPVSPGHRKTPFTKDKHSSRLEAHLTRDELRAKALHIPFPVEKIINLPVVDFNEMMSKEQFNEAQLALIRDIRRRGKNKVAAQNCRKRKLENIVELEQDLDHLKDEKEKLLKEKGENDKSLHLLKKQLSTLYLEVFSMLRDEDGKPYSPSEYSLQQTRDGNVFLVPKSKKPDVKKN

[2] = target: T2, CYP1A2 (Homo sapiens, UniProt P05177); assay: Inhibition of CYP1A2 (unknown origin) assessed as enzyme activity at 10 uM relative to control; format: ADME; set-up: scale not given: the % may be the effect or the level left; conditions: read-out: Activity
T2 sequence (P05177 whole entry): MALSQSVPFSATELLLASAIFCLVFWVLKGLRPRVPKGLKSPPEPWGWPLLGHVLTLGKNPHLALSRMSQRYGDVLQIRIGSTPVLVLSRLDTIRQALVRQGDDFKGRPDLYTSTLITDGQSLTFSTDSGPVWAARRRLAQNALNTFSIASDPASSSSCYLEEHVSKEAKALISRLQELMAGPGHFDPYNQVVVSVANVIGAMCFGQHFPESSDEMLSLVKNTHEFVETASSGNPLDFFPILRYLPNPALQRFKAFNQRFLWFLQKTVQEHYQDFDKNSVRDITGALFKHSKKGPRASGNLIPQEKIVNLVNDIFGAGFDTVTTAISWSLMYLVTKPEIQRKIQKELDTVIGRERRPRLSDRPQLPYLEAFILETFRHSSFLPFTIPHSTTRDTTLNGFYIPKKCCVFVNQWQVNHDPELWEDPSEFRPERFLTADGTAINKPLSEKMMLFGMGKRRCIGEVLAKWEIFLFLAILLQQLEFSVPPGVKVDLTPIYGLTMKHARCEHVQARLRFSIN

[3] = target: CYP3A4 (Homo sapiens, UniProt P08684); assay: Inhibition of CYP3A4 (unknown origin) assessed as enzyme activity at 10 uM relative to control; format: ADME; set-up: scale not given: the % may be the effect or the level left; conditions: read-out: Activity
[4] = target: CYP2C9 (Homo sapiens, UniProt P11712); assay: Inhibition of CYP2C9 (unknown origin) assessed as enzyme activity at 10 uM relative to control; format: ADME; set-up: scale not given: the % may be the effect or the level left; conditions: read-out: Activity
[5] = target: CYP2C19 (Homo sapiens, UniProt P33261); assay: Inhibition of CYP2C19 (unknown origin) assessed as enzyme activity at 10 uM relative to control; format: ADME; set-up: scale not given: the % may be the effect or the level left; conditions: read-out: Activity
[6] = target: CYP2D6 (Homo sapiens, UniProt P10635); assay: Inhibition of CYP2D6 (unknown origin) assessed as enzyme activity at 10 uM relative to control; format: ADME; set-up: scale not given: the % may be the effect or the level left; conditions: read-out: Activity
[7] = Metabolic stability of the compound in human liver microsomes assessed as parent compound remaining measured after 30 mins; format: ADME, Microsome; conditions: read-out: Stability
[8] = Metabolic stability of the compound in mouse liver microsomes assessed as parent compound remaining measured after 30 mins; format: ADME, Microsome; conditions: read-out: Stability
[9] = Metabolic stability of the compound in human plasma assessed as parent compound remaining measured after 30 mins; format: ADME, cell-free; conditions: read-out: Stability
[10] = Metabolic stability of the compound in rat plasma assessed as parent compound remaining measured after 30 mins; format: ADME, cell-free; conditions: read-out: Stability

Sequence of CYP2D6 (P10635 whole entry): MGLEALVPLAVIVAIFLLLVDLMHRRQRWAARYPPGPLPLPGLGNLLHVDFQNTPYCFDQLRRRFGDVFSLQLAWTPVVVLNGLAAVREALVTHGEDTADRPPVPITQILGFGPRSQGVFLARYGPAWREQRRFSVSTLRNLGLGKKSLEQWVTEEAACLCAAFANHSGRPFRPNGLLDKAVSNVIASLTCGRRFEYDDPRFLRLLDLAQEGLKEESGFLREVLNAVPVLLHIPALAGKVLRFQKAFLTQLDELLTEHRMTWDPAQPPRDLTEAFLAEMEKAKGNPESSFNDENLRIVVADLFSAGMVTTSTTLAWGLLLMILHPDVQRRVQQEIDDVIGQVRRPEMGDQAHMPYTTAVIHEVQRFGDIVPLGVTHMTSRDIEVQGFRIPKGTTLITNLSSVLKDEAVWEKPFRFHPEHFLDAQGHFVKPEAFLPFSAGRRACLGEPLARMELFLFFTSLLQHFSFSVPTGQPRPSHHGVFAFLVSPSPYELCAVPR
Sequence of CYP2C19 (P33261 whole entry): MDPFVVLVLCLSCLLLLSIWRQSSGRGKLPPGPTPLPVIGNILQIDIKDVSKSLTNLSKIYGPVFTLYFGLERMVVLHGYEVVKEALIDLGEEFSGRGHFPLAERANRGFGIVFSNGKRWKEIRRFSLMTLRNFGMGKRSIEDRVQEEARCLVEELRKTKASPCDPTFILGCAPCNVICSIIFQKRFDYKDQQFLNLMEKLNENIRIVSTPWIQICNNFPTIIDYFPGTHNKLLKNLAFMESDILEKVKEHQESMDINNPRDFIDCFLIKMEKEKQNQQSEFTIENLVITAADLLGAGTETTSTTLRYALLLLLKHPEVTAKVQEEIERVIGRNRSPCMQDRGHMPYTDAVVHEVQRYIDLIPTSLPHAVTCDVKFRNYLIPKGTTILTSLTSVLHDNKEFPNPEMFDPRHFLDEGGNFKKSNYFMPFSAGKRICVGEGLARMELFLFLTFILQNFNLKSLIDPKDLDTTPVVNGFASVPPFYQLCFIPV
Sequence of CYP3A4 (P08684 whole entry): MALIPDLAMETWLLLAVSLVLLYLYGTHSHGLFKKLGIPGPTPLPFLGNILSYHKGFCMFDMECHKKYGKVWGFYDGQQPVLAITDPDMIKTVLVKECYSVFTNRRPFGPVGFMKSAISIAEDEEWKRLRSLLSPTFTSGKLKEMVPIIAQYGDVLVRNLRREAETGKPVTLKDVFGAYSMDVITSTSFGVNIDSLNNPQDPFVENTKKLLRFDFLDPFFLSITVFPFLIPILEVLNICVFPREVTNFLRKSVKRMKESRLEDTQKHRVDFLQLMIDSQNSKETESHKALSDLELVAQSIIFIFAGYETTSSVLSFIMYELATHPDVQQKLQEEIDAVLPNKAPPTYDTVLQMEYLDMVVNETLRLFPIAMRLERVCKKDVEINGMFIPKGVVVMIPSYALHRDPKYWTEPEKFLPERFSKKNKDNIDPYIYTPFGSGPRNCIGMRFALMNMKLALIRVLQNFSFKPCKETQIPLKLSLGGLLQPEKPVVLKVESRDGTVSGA
Sequence of CYP2C9 (P11712 whole entry): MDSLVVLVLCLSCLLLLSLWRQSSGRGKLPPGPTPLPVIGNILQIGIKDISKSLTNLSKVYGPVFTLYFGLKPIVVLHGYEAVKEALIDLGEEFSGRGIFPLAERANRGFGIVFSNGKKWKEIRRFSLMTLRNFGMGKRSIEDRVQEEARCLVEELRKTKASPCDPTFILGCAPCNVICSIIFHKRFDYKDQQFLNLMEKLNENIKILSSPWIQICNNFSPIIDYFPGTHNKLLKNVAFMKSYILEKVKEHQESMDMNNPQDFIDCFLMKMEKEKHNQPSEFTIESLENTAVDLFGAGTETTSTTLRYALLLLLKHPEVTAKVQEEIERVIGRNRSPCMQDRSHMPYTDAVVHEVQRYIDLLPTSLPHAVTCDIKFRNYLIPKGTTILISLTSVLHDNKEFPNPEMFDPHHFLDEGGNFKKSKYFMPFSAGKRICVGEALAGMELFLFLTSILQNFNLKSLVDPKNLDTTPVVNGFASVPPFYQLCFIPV

`COc1ccnc(S(=O)(=O)/C=C/c2cccc(Cl)c2)c1` showed an EC50 [1] of 824 nM, an activity at 10 µM [2] of 63.4% and an activity at 10 µM [3] of 38.2%. For the same compound, the activity at 10 µM [4] was greater than 99%, the activity at 10 µM [5] was 7% and the activity at 10 µM [6] was 97.2%. For the same compound, the remaining at 0.5 h [7] was 54.6%, the remaining at 0.5 h [8] was 8.7% and the remaining at 0.5 h [9] was greater than 99%. The remaining at 0.5 h [10] was 94.7%.

Work on `COc1ccnc(S(=O)(=O)/C=C/c2ccncc2Cl)c1` yielded an EC50 [1] of 32 nM, an activity at 10 µM [2] of 29.9% and an activity at 10 µM [3] of 70.2%. It also gave an activity at 10 µM [4] greater than 99%, an activity at 10 µM [5] of 22.4% and an activity at 10 µM [6] of 69.8%. It also gave a remaining at 0.5 h [7] of 77.3%, a remaining at 0.5 h [8] of 50.4% and a remaining at 0.5 h [9] of 83.6%. It also gave a remaining at 0.5 h [10] of 43.4%.

`COc1cccnc1S(=O)(=O)/C=C/c1ccccc1Cl` showed an EC50 [1] of 76 nM, an activity at 10 µM [2] of 71.8% and an activity at 10 µM [3] of 87.1%. For the same compound, the activity at 10 µM [4] was 59.7%, the activity at 10 µM [5] was 60.7% and the activity at 10 µM [6] was 93.4%. The remaining at 0.5 h [7] was 83.1%, the remaining at 0.5 h [8] was 34.4% and the remaining at 0.5 h [9] was 92.4%. The remaining at 0.5 h [10] was greater than 99%.

With `COc1ccncc1S(=O)(=O)/C=C/c1ccccc1C(F)(F)F` the EC50 [1] was 248 nM, the activity at 10 µM [2] was 12.1% and the activity at 10 µM [3] was 12%. The activity at 10 µM [4] was greater than 99%, the activity at 10 µM [5] was 23.5% and the activity at 10 µM [6] was 85.1%. For the same compound, the remaining at 0.5 h [7] was 82.9% and the remaining at 0.5 h [8] was 71.9%.

`COc1ncccc1S(=O)(=O)/C=C/c1ccccc1C(F)(F)F` showed an EC50 [1] of 749 nM, an activity at 10 µM [2] of 12.4% and an activity at 10 µM [3] of 51.7%. For the same compound, the activity at 10 µM [4] was greater than 99%, the activity at 10 µM [5] was 16.2% and the activity at 10 µM [6] was 94.4%. The remaining at 0.5 h [7] was 75.2%, the remaining at 0.5 h [8] was 48.1% and the remaining at 0.5 h [9] was 91.3%. It also gave a remaining at 0.5 h [10] of 89.3%.

In the case of `COc1ccc([S+]([O-])/C=C/c2ccccc2C(F)(F)F)nc1` (configuration not stated), the activity at 10 µM [2] is reported as 48.8%, the activity at 10 µM [3] is reported as 78% and the activity at 10 µM [4] is reported as greater than 99%. It also gave an activity at 10 µM [5] of 2.5%, an activity at 10 µM [6] of 94% and a remaining at 0.5 h [7] of 28%. For the same compound, the remaining at 0.5 h [8] was 1%, the remaining at 0.5 h [9] was greater than 99% and the remaining at 0.5 h [10] was 89%.

Compound `COc1ccc(S(=O)(=O)/C=C/c2ccccc2Cl)nc1` has an EC50 [1] of 130 nM, an activity at 10 µM [2] of 46.1% and an activity at 10 µM [3] of 58.8%. For the same compound, the activity at 10 µM [4] was greater than 99%, the activity at 10 µM [5] was 5.4% and the activity at 10 µM [6] was 100%. It also gave a remaining at 0.5 h [7] of 9.5%, a remaining at 0.5 h [8] of 5.6% and a remaining at 0.5 h [9] greater than 99%. For the same compound, the remaining at 0.5 h [10] was greater than 99%.

In the case of `COc1cccc([S+]([O-])/C=C/c2ccccc2C(F)(F)F)n1` (configuration not stated), the activity at 10 µM [2] is reported as 4.9%, the activity at 10 µM [3] is reported as 38.3% and the activity at 10 µM [4] is reported as 78.3%. It also gave an activity at 10 µM [5] of 5.5%, an activity at 10 µM [6] of 72.6% and a remaining at 0.5 h [7] of 6.3%. The remaining at 0.5 h [8] was 1.1%, the remaining at 0.5 h [9] was 82.4% and the remaining at 0.5 h [10] was 89.8%.

`COc1ccc(S(=O)(=O)/C=C/c2ccccc2C(F)(F)F)nc1` showed an EC50 [1] of 245 nM, an activity at 10 µM [2] of 27.8% and an activity at 10 µM [3] of 58%. The activity at 10 µM [4] was greater than 99%, the activity at 10 µM [5] was 3.7% and the activity at 10 µM [6] was 100%. For the same compound, the remaining at 0.5 h [7] was 31.7%, the remaining at 0.5 h [8] was 2.7% and the remaining at 0.5 h [9] was 99%. The remaining at 0.5 h [10] was 94.7%.

For `COc1ncccc1S(=O)(=O)/C=C/c1ncccc1C(F)(F)F`, the EC50 [1] was 214 nM, the activity at 10 µM [2] was 57.3% and the activity at 10 µM [3] was 51.7%. The activity at 10 µM [4] was greater than 99%, the activity at 10 µM [5] was 17.6% and the activity at 10 µM [6] was greater than 99%. For the same compound, the remaining at 0.5 h [7] was 59.4%, the remaining at 0.5 h [8] was 29.9% and the remaining at 0.5 h [9] was 97.4%. It also gave a remaining at 0.5 h [10] of 88.6%.

`COC(=O)/C=C/C(=O)O` [MONOMETHYL FUMARATE] gave an EC50 [1] greater than 10000 nM.
